Measurements from patent US20250195521A1 (Revolution Medicines, Inc., priority 2020, published 2025).

Key:
Experiment in all cases: Ras-Raf disruption/FRET/MOA assay (BRAF RBD, Cyclophilin A)
Type in all cases: biochemical
KRAS Q61H = KRAS Q61H (Homo sapiens (Human), UniProt P01116+P62937, Q61H)
How it was run: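 25 μM tagless Cyclophilin A, 12.5 nM His6-Ras-GMPPNP and 50 nM GST-BRAF RBD in HEPES pH 7.3 buffer with 5 mM MgCl2, with compound (10-point 3-fold series from 30 μM final) for 3 h at 25 °C. Anti-His Eu and anti-GST APC then added for 1.5 h. IC50 from TR-FRET ratio decrease versus DMSO.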

NRAS Q61R = NRAS Q61R (Homo sapiens (Human), UniProt P01111+P62937, Q61R)
Sequence of NRAS Q61R (P01111 whole entry Q61R): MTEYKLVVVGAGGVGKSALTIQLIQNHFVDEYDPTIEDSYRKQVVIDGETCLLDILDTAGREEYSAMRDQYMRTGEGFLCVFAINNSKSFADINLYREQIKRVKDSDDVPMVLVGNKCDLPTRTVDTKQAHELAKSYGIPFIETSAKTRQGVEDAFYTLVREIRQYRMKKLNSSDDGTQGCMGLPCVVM
Sequence of NRAS Q61R (P62937 whole entry): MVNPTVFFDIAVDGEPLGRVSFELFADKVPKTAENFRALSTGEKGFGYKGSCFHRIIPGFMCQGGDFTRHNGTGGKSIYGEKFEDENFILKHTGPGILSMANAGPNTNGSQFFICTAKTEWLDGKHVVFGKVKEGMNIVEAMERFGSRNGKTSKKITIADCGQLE
How it was run: (§1)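 First, 25 μM Cyclophilin A, 12.5 nM His6-Ras-GMPPNP and 50 nM GST-BRAF RBD are mixed with diluted compound at pH 7.3. Next, 3 h at 25° C. Then 10 nM anti-His Eu-W1024 plus 50 nM anti-GST allophycocyanin for 1.5 h before TR-FRET reading.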

NRAS WT = NRAS WT (Homo sapiens (Human), UniProt P01111+P62937)
Sequence of NRAS WT (P01111 whole entry): as the sequence (P01111 whole entry Q61R) above, with R61Q counted along it
Sequence of NRAS WT (P62937 whole entry): as the sequence (P62937 whole entry) above
How it was run: as §1

NRAS Q61K = NRAS Q61K (Homo sapiens (Human), UniProt P01111+P62937, Q61K)
Sequence of NRAS Q61K (P01111 whole entry Q61K): as the sequence (P01111 whole entry Q61R) above, with R61K counted along it
Sequence of NRAS Q61K (P62937 whole entry): as the sequence (P62937 whole entry) above
How it was run: as §1

Sequence of KRAS Q61H (P01116 other isoform, or with tags, fused parts or gaps Q61H): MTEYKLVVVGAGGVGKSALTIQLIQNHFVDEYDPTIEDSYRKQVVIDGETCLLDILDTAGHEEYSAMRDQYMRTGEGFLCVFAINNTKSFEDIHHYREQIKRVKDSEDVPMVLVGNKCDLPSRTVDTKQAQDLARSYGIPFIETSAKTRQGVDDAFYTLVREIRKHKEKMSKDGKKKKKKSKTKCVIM
Sequence of KRAS Q61H (P62937 whole entry): as the sequence (P62937 whole entry) above

IC50 (KRAS Q61H) | IC50 (NRAS Q61R) | IC50 (NRAS WT) | IC50 (NRAS Q61K) | Structure (SMILES)
100 to 1000 nM | 1000 to 10000 nM | 1000 to 10000 nM | 100 to 1000 nM | CCn1c(-c2cccnc2[C@H](C)OC)c2c3cc(ccc31)-c1csc(n1)C[C@H](NC(=O)[C@H](C(C)C)N(C)C(=O)N1C[C@H]3CN(C)CC[C@H]31)C(=O)N1CCC[C@H](N1)C(=O)OCC(C)(C)C2 [Compound A462]
100 to 1000 nM | 1000 to 10000 nM | 100 to 1000 nM | 1000 to 10000 nM | CCn1c(-c2cccnc2[C@H](C)OC)c2c3cc(ccc31)-c1csc(n1)C[C@H](NC(=O)[C@H](C(C)C)N(C)C(=O)N1CC[C@H]1CN)C(=O)N1CCC[C@H](N1)C(=O)OCC(C)(C)C2 [Compound A463]
100 to 1000 nM | 1000 to 10000 nM | 100 to 1000 nM | 1000 to 10000 nM | CCn1c(-c2cccnc2[C@H](C)OC)c2c3cc(ccc31)-c1csc(n1)C[C@H](NC(=O)[C@H](C(C)C)N(C)C(=O)N1CCC[C@@H]1CN(C)C)C(=O)N1CCC[C@H](N1)C(=O)OCC(C)(C)C2 [Compound A518]
10 to 100 nM | 100 to 1000 nM | 10 to 100 nM |  | CCn1c(-c2cccnc2[C@H](C)OC)c2c3cc(ccc31)-c1csc(n1)C[C@H](NC(=O)[C@H](C(C)C)N(C)C(=O)N1CC([C@H](C)COC)C1)C(=O)N1CCC[C@H](N1)C(=O)OCC(C)(C)C2 [Compound A533]
10 to 100 nM | 100 to 1000 nM | 100 to 1000 nM |  | CCn1c(-c2cccnc2[C@H](C)OC)c2c3cc(ccc31)-c1csc(n1)C[C@H](NC(=O)[C@H](C(C)C)N(C)C(=O)N1CC([C@H](C)N(C)C)C1)C(=O)N1CCC[C@H](N1)C(=O)OCC(C)(C)C2 [Compound A538]
10 to 100 nM | 100 to 1000 nM | 10 to 100 nM | 100 to 1000 nM | CCn1c(-c2cccnc2[C@H](C)OC)c2c3cc(ccc31)-c1csc(n1)C[C@H](NC(=O)[C@H](C(C)C)N(C)C(=O)N1CCCC13CN(C)C3)C(=O)N1CCC[C@H](N1)C(=O)OCC(C)(C)C2 [Compound A545]

Second part, the compound before the results:

Structure (SMILES) | IC50 (KRAS Q61H) | IC50 (NRAS Q61R) | IC50 (NRAS WT) | IC50 (NRAS Q61K)
CCO[C@@H]1c2nc(cs2)-c2ccc3c(c2)c(c(-c2cc(C4CCN(C5COC5)CC4)cnc2[C@H](C)OC)n3CC)CC(C)(C)COC(=O)[C@@H]2CCCN(N2)C(=O)[C@H]1NC(=O)[C@H]1[C@H](C)[C@@H]1C [Compound A449, (1r,2R,3S)—N-((6^3S,3S,4S,Z)-3-ethoxy-1^1-ethyl-1^2-(2-((S)-1-methoxyethyl)-5-(1-(oxetan-3-yl)piperidin-4-yl)pyridin-3-yl)-10,10-dimethyl-5,7-dioxo-6^1,6^2,6^3,6^4,6^5,6^6-hexahydro-1^1H-8-oxa-2 (4,2)-thiazola-1 (5,3)-indola-6 (1,3)-pyridazinacycloundecaphane-4-yl)-2,3-dimethylcyclopropane-1-carboxamide] | 100 to 1000 nM |  |  | 
CCn1c(-c2cccnc2[C@H](C)OC)c2c3cc(ccc31)-c1csc(n1)[C@@H](OCC1CCN(C)CC1)[C@H](NC(=O)[C@H]1C[C@@H]1C)C(=O)N1CCC[C@H](N1)C(=O)OCC(C)(C)C2 [Compound A451, (1S,2S)—N-((6^3S,3S,4S,Z)-1^1-ethyl-1^2-(2-((S)-1-methoxyethyl)pyridin-3-yl)-10,10-dimethyl-3-((1-methylpiperidin-4-yl)methoxy)-5,7-dioxo-6^1,6^2,6^3,6^4,6^5,6^6-hexahydro-1^1H-8-oxa-2 (4,2)-thiazola-1 (5,3)-indola-6 (1,3)-pyridazinacycloundecaphane-4-yl)-2-methylcyclopropane-1-carboxamide] | 100 to 1000 nM |  |  | 
CCn1c(-c2cc(N3CCN(C)CC3)cnc2[C@H](C)OC)c2c3cc(ccc31)-c1csc(n1)C[C@H](NC(=O)[C@H](C(C)C)N(C)C(=O)N1CC(OC)C1)C(=O)N1CCC[C@H](N1)C(=O)OCC(C)(C)C2 [Compound A466] | 10 to 100 nM |  | 10 to 100 nM | 
CCOC1c2nc(cs2)-c2ccc3c(c2)c(c(-c2cc(C4CC5COCC(C4)N5C4CC4)cnc2C(C)OC)n3CC)CC(C)(C)COC(=O)C2CCCN(N2)C(=O)C1NC(=O)C1C(C)C1C [Compound A483, (1r,2R,3S)—N-((6^3S,3S,4S,Z)-12-(5-((1R,5S,7s)-9-cyclopropyl-3-oxa-9-azabicyclo[3.3.1]nonan-7-yl)-2-((S)-1-methoxyethyl)pyridin-3-yl)-3-ethoxy-1^1-ethyl-10,10-dimethyl-5,7-dioxo-6^1,6^2,6^3,6^4,6^5,6^6-hexahydro-1^1H-8-oxa-2 (4,2)-thiazola-1 (5,3)-indola-6 (1,3)-pyridazinacycloundecaphane-4-yl)-2,3-dimethylcyclopropane-1-carboxamide] | 10 to 100 nM |  |  | 
CCn1c(-c2cccnc2[C@H](C)OC)c2c3cc(ccc31)-c1csc(n1)C[C@H](NC(=O)[C@H](C(C)C)N(C)C(=O)N1CCC13CCS(=O)(=O)CC3)C(=O)N1CCC[C@H](N1)C(=O)OCC(C)(C)C2 [Compound A530] | 10 to 100 nM | 100 to 1000 nM | 100 to 1000 nM | 
CCn1c(-c2cccnc2[C@H](C)OC)c2c3cc(ccc31)-c1csc(n1)C[C@H](NC(=O)[C@H](C(C)C)N(CCc1ccncc1)C1CC1)C(=O)N1CCC[C@H](N1)C(=O)OCC(C)(C)C2 [Compound A556] | 100 to 1000 nM | 100 to 1000 nM | 100 to 1000 nM | 100 to 1000 nM
CCn1c(-c2cccnc2[C@H](C)OC)c2c3cc(ccc31)-c1cc(O)cc(c1)C[C@H](NC(=O)[C@H](C(C)C)N(C)C(=O)[C@@H]1OCC[C@H]1c1ccccc1)C(=O)N1CCC[C@H](N1)C(=O)OCC(C)(C)C2 [Compound A584] | 10 to 100 nM |  | 10 to 100 nM | 
